Laboratory results as given in US20130011855A1, “Methods for Determining Aged Based Accumulation of Senescent Cells Using Senescense Specific DNA Damage Markers” (priority 2008, published 2013).

Experiments:
ATM/ATR p (S/TQ) = test: Relative immunofluorescent intensity of ATM/ATR p (S/TQ) foci in frozen liver sections; assay type: in vivo; details: single i.p. injection to juvenile mice, liver hepatocytes
Description: (§1) Eight to eleven-day-old F1 mice from C57BL/6, obtained from the National Institute of Aging, Aged Rodent Colonies (Bethesda, Md.), were injected intraperitoneally with AAT (Sigma-Aldrich; St. Louis, Mo.) at 2 mg/kg body weight in corn oil. […] Control gender-matched litter mates were injected with corn oil or PBS. […] Female C57BL/6 mice (4- and 22-month-old) were allowed to acclimate at least 1 week prior to usage. All procedures were done within the guidelines of the Animal Research Committee at the University of Illinois at Chicago and the “Principles of laboratory animal care” (NIH publication No. 86-23, revised 1985).
(§2) To detect DNA damage foci, frozen 5-micron liver sections were rapidly transferred to slides after sectioning, then immediately fixed in 2% paraformaldehyde PBS for 20 min, and then prepared following standard protocols. […] Foci-associated nuclei and total nuclei were counted using Image Pro Plus software (MediaCybernetics, Bethesda, Md.). Three to four mice were used for each time point and 300-500 nuclei were counted for each subject. Relative fluorescence intensity of foci in images was quantitated using the density measurement of the Image Pro Plus software with subtraction of local background levels. Four to seven mice were studied per time point with 8 to 18 53BP1/phospho ATM foci scored per mouse. […]

ATM p (S1987) = test: Relative immunofluorescent intensity of phospho ATM foci in frozen liver sections; assay type: in vivo, mice; details: for Relative immunofluorescent intensity of foci for ATM p (S1987): single i.p. injection to juvenile mice, liver hepatocytes; for signal strength of phospho ATM in 53BP1/phospho ATM foci: by 7 weeks after exposure
Description: as §1
To detect DNA damage foci, frozen 5-micron liver sections were rapidly transferred to slides after sectioning, then immediately fixed in 2% paraformaldehyde PBS for 20 min, and then prepared following standard protocols. […] The specificity was verified by blockage with oligopeptides bearing the antigenic sequences. Antiphospho ATM (S1981) (Rockland Immunochemicals, Gilbertsville, Pa.; 1:800) was a mouse antibody. Anti-rabbit and anti-mouse secondary antibodies conjugated to Cy-3 were obtained from Jackson Immunoresearch (West Grove, Pa.). Prior to mouse primary antibody application, tissues were first blocked with 1% goat anti-mouse FAB (Jackson Immunoresearch) followed by incubation with 4% BSA. Slides were counterstained with 0.2 ug/ml 4′,6-diamidino-2-phenylindole (DAPI) for 2 min prior to mounting in mowiol (Calbiochem; San Diego, Calif.) with 2% 1,4-diazobicyclo[2,2,2]octane (Sigma-Aldrich). Fluorescent 400× images were typically collected immediately after the assay. Foci-associated nuclei and total nuclei were counted using Image Pro Plus software (MediaCybernetics, Bethesda, Md.). Three to four mice were used for each time point and 300-500 nuclei were counted for each subject. Relative fluorescence intensity of foci in images was quantitated using the density measurement of the Image Pro Plus software with subtraction of local background levels. Four to seven mice were studied per time point with 8 to 18 53BP1/phospho ATM foci scored per mouse. Minimally exposed images were used. The student's t-test was used for statistical comparisons for these and other experiments. For double labeling with anti-phospho ATM (S1981) and anti-53BP1 antibodies, sections were prepared as described above, first labeling with the anti-phospho-ATM (S1981) and Cy-3 secondary antibody as above, then incubated with 4% BSA, followed by anti-53BP1 and then by Alexa 488 conjugated goat anti-rabbit antibody (Invitrogen; Carlsbad, Calif.; 1:200). All secondary antibodies were pre-adsorbed to reduce cross-reactivity as verified by negative control experiments.

[1] = tested on: 53BP1/phospho ATM (S1981) foci in hepatocytes; test: Hepatocytes positive for 53BP1/phospho ATM co-localized foci in liver sections; assay type: in vivo, mice
Description: as §1, §2

[2] = tested on: 53BP1 foci in hepatocytes; test: 53BP1 foci immunolocalization in hepatocytes of frozen liver sections; assay type: in vivo, mice; details: by 2.5 days after exposure
Description: Eight to eleven-day-old F1 mice from C57BL/6, obtained from the National Institute of Aging, Aged Rodent Colonies (Bethesda, Md.), were injected intraperitoneally with AAT (Sigma-Aldrich; St. Louis, Mo.) at 2 mg/kg body weight in corn oil. […] Control gender-matched litter mates were injected with corn oil or PBS. […] All procedures were done within the guidelines of the Animal Research Committee at the University of Illinois at Chicago and the “Principles of laboratory animal care” (NIH publication No. 86-23, revised 1985).
To detect DNA damage foci, frozen 5-micron liver sections were rapidly transferred to slides after sectioning, then immediately fixed in 2% paraformaldehyde PBS for 20 min, and then prepared following standard protocols. […] The specificity was verified by blockage with oligopeptides bearing the antigenic sequences. […] Foci-associated nuclei and total nuclei were counted using Image Pro Plus software (MediaCybernetics, Bethesda, Md.). Three to four mice were used for each time point and 300-500 nuclei were counted for each subject. Relative fluorescence intensity of foci in images was quantitated using the density measurement of the Image Pro Plus software with subtraction of local background levels. Four to seven mice were studied per time point with 8 to 18 53BP1/phospho ATM foci scored per mouse. […]

phospho Chk2 (T68) = test: Phospho Chk2 (T68) nuclear immunostaining of liver sections; assay type: in vivo, mice
Description: as §1, §2

p53 (S 15) = test: Phospho p53 (S15) immunostaining of liver sections; assay type: in vivo, mice; details: baseline or near baseline levels by 3-7 weeks post exposure
Description: as §1, §2

primary hepatocytes [3] = test: S phase index by [3H]thymidine labeling of hepatocytes isolated from exposed mice; assay type: cell-based; details: hepatocytes from juvenile mice exposed 3 weeks previously
Description: (§3) FIG. 5A Collagenase perfusion was used to isolate hepatocytes from juvenile mice exposed 3 weeks previously to AAT. Twenty-four hours prior to fixation, cells were incubated with [3H]thymidine to allow the quantitation of the S phase index after processing for autoradiography. Shown are the means plus the (standard deviations) S.D. *P<0.002 versus the controls. FIG. 5B Cells isolated as described above from mice exposed, or not exposed, to AAT were subjected to the SA-β-Gal assay after fixation. At least 100 cells were counted on each plate from 3 to 5 control mice and 5 to 6 AAT exposed mice depending on the time point. Shown are the means plus S.D. *P<0.05 versus the controls. FIG. 5C Shown is a representative bright field image of primary hepatocytes 3 days after culture. Arrows indicate the blue, peri-nuclear stained, SA β Gal-positive cells. To reduce background [3H]thymidine detection was not done in this experiment. The phase contrast image below allows better visualization of the cells, original magnification 100×. FIG. 5D Hepatocytes isolated from adult 4-month-old and 22-month-old were cultured and assayed for S phase index as described. Shown are means plus S.D. There is a lag in S phase entry in cells from these adult mice. *P<0.02 and **P<0.004. FIG. 5E Hepatocytes from young adult and aged adult mice were cultured as described and then subjected to the SA β Gal assay. […]

primary hepatocytes [4] = test: SA β Gal assay on hepatocytes isolated from exposed mice; assay type: cell-based; details: hepatocytes from exposed mice in primary culture
Description: as §3, with “100×.” for “100×. FIG. 5D Hepatocytes isolated from adult 4-month-old and 22-month-old were cultured and assayed for S phase index as described. Shown are means plus S.D. There is a lag in S phase entry in cells from these adult mice. *P<0.02 and **P<0.004. FIG. 5E Hepatocytes from young adult and aged adult mice were cultured as described and then subjected to the SA β Gal assay.”
DNA damage repair proteins such as Chk2 that are active in DDR are not active during senesce. […] There was no enrichment of activated phospho p53 (S15) or Chk2 (T68), while phospho ATM (S1981) positive cells were detected but the foci were of low intensity (FIG. 3, Table 1, data not shown). […]

SMILES | Relative immunofluorescent intensity of foci for ATM/ATR p (S/TQ) (ATM/ATR p (S/TQ); 3 Wk post exposure) | Relative immunofluorescent intensity of foci for ATM/ATR p (S/TQ) (ATM/ATR p (S/TQ); 7 Wk post exposure) | Relative immunofluorescent intensity of foci for ATM p (S1987) (ATM p (S1987); 3 Wk post exposure) | Relative immunofluorescent intensity of foci for ATM p (S1987) (ATM p (S1987); 7 Wk post exposure) | signal strength of phospho ATM in 53BP1/phospho ATM foci (ATM p (S1987)) | nuclear foci containing both 53BP1 and phospho ATM ([1]; 1 and 3 weeks after genotoxin exposure) | cells with 53BP1/phospho ATM foci ([1]; 7 weeks after exposure, versus unexposed control mice) | 53BP1 foci in hepatocytes [2] | phospho Chk2 positive nuclei (phospho Chk2 (T68); 0.5 and 1 week after exposure) | activation of Chk2 (T68) over time (phospho Chk2 (T68); baseline or near baseline levels by 3-7 weeks post exposure) | activation of p53 (S 15) over time (p53 (S 15)) | S phase entry of isolated hepatocytes (primary hepatocytes [3]) | SA β Gal staining of isolated hepatocytes (primary hepatocytes [4])
Cc1cc(N=Nc2ccccc2C)ccc1N [AAT, aminoazotoluene] | 100 ± 20.0 | 50 ± 17.5^A | 100 ± 4.50 | 50 ± 9.80^D | significant decreases in the signal strength of phospho ATM | elevated levels of nuclear foci | still present at higher levels than in the unexposed control mice | Appearance of 53BP1 foci | high levels of nuclear staining | activated only transiently | activated only transiently | defective for S phase entry | positive for SA β Gal
CO[C@@]12[C@H](COC(N)=O)C3=C(C(=O)C(C)=C(N)C3=O)N1C[C@@H]1N[C@@H]12 [mitomycin C] |  |  |  |  | significant decreases in the signal strength of phospho ATM |  |  |  |  |  |  |  | 
